Experimental findings from patent US20230226081A1, “PHARMACEUTICAL FORMULATIONS OF ABIRATERONE ACETATE AND NIRAPARIB” (Janssen Pharmaceutica NV, priority 2020, published 2023) are described below.

The nature of the data set: Particle size of the drug substances. The class given is physicochemical.

Consider `CC(=O)O[C@H]1CC[C@@]2(C)C(=CC[C@@H]3[C@@H]2CC[C@]2(C)C(c4cccnc4)=CC[C@@H]32)C1` [Abiraterone acetate], for which the “d50 particle size of drug substance” value is given as 4-5 μm.

Take `Cc1ccc(S(=O)(=O)O)cc1.NC(=O)c1cccc2cn(-c3ccc([C@@H]4CCCNC4)cc3)nc12` [niraparib tosylate monohydrate, 2-[4-[(3S)-piperidin-3-yl]phenyl]-2H-indazole-7-carboxamide tosylate monohydrate]: the “d50 particle size of drug substance” value was “around 50 μm”.
